# Where a chain is given by its changes, count along the chain named. Where “and” joins values, the source holds several entries; their conditions need not be identical. Identical values can stand only once. Like-named read-outs stand apart in the source and are kept apart here.
# Key:
# Format in all cases: biochemical
# USP25Δtip D272S = target: T1, USP25Δtip D272S (Homo sapiens, UniProt Q9UHP3, D272S/DEL465-537/INS464GSGSGS); assay: Ub-Rho110 dose–response assay, USP25Δtip D272S
# T1 construct: 6xHis or thioredoxin-6xHis (N, cleaved yes); made in house; host or cells: E. coli BL21star (DE3)
# T1 sequence (Q9UHP3 with tags, fused parts or gaps D272S/DEL465-477/P478G/DEL482-535/A536G/P537S limits assumed): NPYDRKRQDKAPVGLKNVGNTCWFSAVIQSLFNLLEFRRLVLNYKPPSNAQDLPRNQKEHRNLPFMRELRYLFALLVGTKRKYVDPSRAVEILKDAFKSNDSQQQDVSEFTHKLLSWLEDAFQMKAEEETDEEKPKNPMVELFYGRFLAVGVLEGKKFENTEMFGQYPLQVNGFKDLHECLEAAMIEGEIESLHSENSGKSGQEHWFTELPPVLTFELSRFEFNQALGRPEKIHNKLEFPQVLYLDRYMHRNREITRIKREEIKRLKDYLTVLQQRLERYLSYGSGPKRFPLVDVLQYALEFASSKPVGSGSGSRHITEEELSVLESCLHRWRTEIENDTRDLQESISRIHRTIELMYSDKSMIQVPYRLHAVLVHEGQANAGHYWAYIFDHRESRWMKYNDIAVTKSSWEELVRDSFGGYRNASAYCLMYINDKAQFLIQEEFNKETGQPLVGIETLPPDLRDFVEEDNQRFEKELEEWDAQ
# USP28Δtip L264F = target: T2, USP28Δtip L264F (Homo sapiens, UniProt Q96RU2, INS458SGSG/L264F); assay: Ub-Rho110 dose–response assay, USP28Δtip L264F; details: for IC50: USP28 - L264F
# T2 sequence (Q96RU2 with tags, fused parts or gaps L264F/INS458SGSG): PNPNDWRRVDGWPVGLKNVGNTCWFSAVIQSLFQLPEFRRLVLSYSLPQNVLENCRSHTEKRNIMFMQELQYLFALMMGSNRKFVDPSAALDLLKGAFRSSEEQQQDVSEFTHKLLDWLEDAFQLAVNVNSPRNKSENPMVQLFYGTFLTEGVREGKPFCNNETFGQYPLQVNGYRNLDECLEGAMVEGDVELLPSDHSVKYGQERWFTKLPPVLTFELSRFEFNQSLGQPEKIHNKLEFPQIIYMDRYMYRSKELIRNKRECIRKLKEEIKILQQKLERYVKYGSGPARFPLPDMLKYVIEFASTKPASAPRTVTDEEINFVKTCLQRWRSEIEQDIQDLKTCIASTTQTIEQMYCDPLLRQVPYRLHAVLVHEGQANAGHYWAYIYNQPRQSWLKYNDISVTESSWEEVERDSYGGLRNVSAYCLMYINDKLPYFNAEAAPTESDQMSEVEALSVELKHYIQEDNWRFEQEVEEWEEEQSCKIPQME
# USP28Δtip H261A = target: T3, USP28Δtip H261A (Homo sapiens, UniProt Q96RU2, H261A/INS458SGSG); assay: Ub-Rho110 dose–response assay, USP28Δtip H261A; details: for IC50: USP28 - H261A
# T3 sequence (Q96RU2 with tags, fused parts or gaps H261A/INS458SGSG): T2 sequence (Q96RU2 with tags, fused parts or gaps L264F/INS458SGSG)
# USP28Δtip E366A = target: T4, USP28Δtip E366A (Homo sapiens, UniProt Q96RU2, E366A/INS458SGSG); assay: Ub-Rho110 dose–response assay, USP28Δtip E366A; details: for IC50: USP28 - E366A
# T4 sequence (Q96RU2 with tags, fused parts or gaps E366A/INS458SGSG): T2 sequence (Q96RU2 with tags, fused parts or gaps L264F/INS458SGSG)
# USP25Δtip H268A = target: T5, USP25Δtip H268A (Homo sapiens, UniProt Q9UHP3, DEL465-537/H268A/INS464GSGSGS); assay: Ub-Rho110 dose–response assay, USP25Δtip H268A
# T5 construct: 6xHis or thioredoxin-6xHis (N, cleaved yes); made in house; host or cells: E. coli BL21star (DE3)
# T5 sequence (Q9UHP3 with tags, fused parts or gaps H268A/DEL465-477/P478G/DEL482-535/A536G/P537S limits assumed): T1 sequence (Q9UHP3 with tags, fused parts or gaps D272S/DEL465-477/P478G/DEL482-535/A536G/P537S limits assumed) with H112A, S116D
# USP28Δtip WT = target: T6, USP28Δtip WT (Homo sapiens, UniProt Q96RU2, INS458SGSG); assay: Ub-Rho110 dose–response assay, USP28Δtip wt
# T6 sequence (Q96RU2 with tags, fused parts or gaps INS458SGSG): T2 sequence (Q96RU2 with tags, fused parts or gaps L264F/INS458SGSG)
# USP25Δtip L271F = target: T7, USP25Δtip L271F (Homo sapiens, UniProt Q9UHP3, DEL465-537/INS464GSGSGS/L271F); assay: Ub-Rho110 dose–response assay, USP25Δtip L271F
# T7 construct: 6xHis or thioredoxin-6xHis (N, cleaved yes); made in house; host or cells: E. coli BL21star (DE3)
# T7 sequence (Q9UHP3 with tags, fused parts or gaps L271F/DEL465-477/P478G/DEL482-535/A536G/P537S limits assumed): T1 sequence (Q9UHP3 with tags, fused parts or gaps D272S/DEL465-477/P478G/DEL482-535/A536G/P537S limits assumed) with L115F, S116D
# [1] = mean of replicates, read-out: IC50, mean and SD
# [2] = single replicates, read-out: IC50 of each replicate curve (unlabelled line above mean and SD)
# [3] = read-out: relative inhibition [%] - USP28 - L264F
# [4] = read-out: relative inhibition [%] - USP28 - H261A
# [5] = read-out: relative inhibition [%] - USP28 - WT
compound,measurement,setting,value
Cc1ccc2c(N)c(C(=O)NC3CCc4cc(N5CC6CCC(C5)N6)ccc4C3)sc2n1 (centres unmarked) [FT206],t-test vs. USP25 WT control - D272S,"USP25Δtip D272S; p value, inhibitor IC50 on USP25 D272S compared with USP25 WT",3.650E-02
same,inhibition at 33.33 µM,"USP25Δtip D272S; read-out: relative inhibition [%] - USP25 - D272S, inhibitor 33.33 µM, single replicates",87.3%
same,inhibition at 100 µM,"USP25Δtip D272S; read-out: relative inhibition [%] - USP25 - D272S, inhibitor 100.00 µM, single replicates",95.2%
same,t-test vs. USP28 WT control - L264F,USP28Δtip L264F,2.664E-04
same,IC50,USP28Δtip L264F; [1],1270 nM
same,IC50,USP28Δtip L264F; [2],1620 nM and 1310 nM and 1610 nM and 793 nM and 1120 nM and 1150 nM
same,inhibition at 11.11 µM,USP28Δtip L264F; [3],90.1%
same,inhibition at 33.33 µM,USP28Δtip L264F; [3],95.6%
same,inhibition at 100 µM,USP28Δtip L264F; [3],97.8%
same,inhibition at […],USP28Δtip L264F; [3],74.2% and 44.5%
same,t-test vs. USP28 WT control - H261A,USP28Δtip H261A,1.437E-02
same,IC50,USP28Δtip H261A; [1],1370 nM
same,IC50,USP28Δtip H261A; [2],2480 nM and 1420 nM and 1160 nM and 1020 nM and 771 nM
same,inhibition at 11.11 µM,USP28Δtip H261A; [4],80.8%
same,inhibition at 33.33 µM,USP28Δtip H261A; [4],98.5%
same,inhibition at 100 µM,USP28Δtip H261A; [4],107%
same,inhibition at […],USP28Δtip H261A; [4],74.8%
same,t-test vs. USP28 WT control - E366A,USP28Δtip E366A,4.894E-04
same,IC50,USP28Δtip E366A; [1],17300 nM
same,IC50,USP28Δtip E366A; [2],14500 nM and 15500 nM and 12100 nM and 14200 nM and 25700 nM and 21800 nM
same,inhibition at 100 µM,USP28Δtip E366A; read-out: relative inhibition [%] - USP28 - E366A,64.6%
same,t-test vs. USP25 WT control - H268A,"USP25Δtip H268A; p value, inhibitor IC50 on USP25 H268A compared with USP25 WT",1.749E-05
same,inhibition at 11.11 µM,USP25Δtip H268A; read-out: relative inhibition [%] - USP25 - H268A,29.7%
same,inhibition at 33.33 µM,"USP25Δtip H268A; read-out: relative inhibition [%] - USP25 - H268A, inhibitor 33.33 µM, single replicates",55.5%
same,inhibition at 100 µM,"USP25Δtip H268A; read-out: relative inhibition [%] - USP25 - H268A, inhibitor 100.00 µM, single replicates",78.2%
same,IC50,"USP28Δtip WT; USP28 - WT, single replicates, read-out: IC50 of each replicate curve (unlabelled line above mean and SD)",184 nM and 209 nM and 213 nM and 88.9 nM and 91.1 nM and 101 nM
same,IC50,"USP28Δtip WT; USP28Δtip 20 nM, Ub-Rho110 250 nM, 15 min preincubation, average ± SD, n ≥ 5, read-out: IC50, USP28 variants, WT",150 ± 60 nM
same,inhibition at 11.11 µM,USP28Δtip WT; [5],98.6%
same,inhibition at 33.33 µM,USP28Δtip WT; [5],99.3%
same,inhibition at 100 µM,USP28Δtip WT; [5],99.6%
same,inhibition at […],USP28Δtip WT; [5],97.5% and 91.4% and 73.1%
same,t-test vs. USP25 WT control - L271F,"USP25Δtip L271F; p value, inhibitor IC50 on USP25 L271F compared with USP25 WT",4.479E-03
same,inhibition at 11.11 µM,"USP25Δtip L271F; read-out: relative inhibition [%] - USP25 - L271F, inhibitor 11.11 µM, single replicates",90.1%
same,inhibition at 33.33 µM,"USP25Δtip L271F; read-out: relative inhibition [%] - USP25 - L271F, inhibitor 33.33 µM, single replicates",95.6%
same,inhibition at 100 µM,"USP25Δtip L271F; read-out: relative inhibition [%] - USP25 - L271F, inhibitor 100.00 µM, single replicates",100%

# — publication PMC11239673, “Structural basis for the bi-specificity of USP25 and USP28 inhibitors” (EMBO Reports, 2024)
